Test results: patent publication US8877719B2, “Pest controlling composition” (Sumitomo Chemical Company, Limited, priority 2009, dated 2014)

Assays:
Assay type in all cases: in vivo
[1] = test system: Spodoptera litura third-instar larvae; test: Test Example 2: cabbage leaf immersion test, insecticidal ratio on Spodoptera litura third-instar larvae (spinetoram / spiromesifen); details: cabbage leaf immersed 60 seconds, four days after
Description: (§1) A flowable formulation containing 11.7 wt % of spinetoram (spinetoram J:spinetoram L=75:25 (weight ratio)) was diluted with water containing 0.02 vol % of a spreading agent (trade name: Sindain, manufactured by Sumitomo Chemical Co., Ltd.) so as to obtain a given concentration.
(§2) A flowable formulation containing 22.9 wt % of spiromesifen (trade name: CLEAZAR, manufactured by Bayer CropScience) was diluted with water containing 0.02 vol % of a spreading agent (trade name: Sindain, manufactured by Sumitomo Chemical Co., Ltd.) so as to obtain a given concentration.
The spinetoram water-diluted solution and spiromesifen water-diluted solution were mixed to prepare a test drug solution.
(§3) Cabbage was planted in a pot having a capacity of 860 ml and allowed to grow to 4-leaves stage. Leaves of the cabbage were cut one by one. One of the cabbage leaves was immersed in a test drug solution for 60 seconds. The cabbage leaf was air-dried, then, the cabbage leaf was placed in a cup having a capacity of 500 ml containing filter paper laid therein. Ten Spodoptera litura third-instar larvae were released in this cup. Four days after, life-or-death of the tested insects was observed. From the observed results, the insecticidal ratio was calculated in the same manner as in Test Example 1. The test was repeated three times.

[2] = test system: Tetranychus urticae female adult insects; test: Test Example 3: kidney bean leaf piece spray test, insecticidal ratio on Tetranychus urticae female adults; details: sprayed on kidney bean leaf pieces, three days after
Description: as §1
(§4) A flowable formulation containing 22.4 wt % of spirotetramat (trade name: Movento, manufactured by Bayer CropScience) was diluted with water containing 0.02 vol % of a spreading agent (trade name: Sindain, manufactured by Sumitomo Chemical Co., Ltd.) so as to obtain a given concentration.
as §2
These water-diluted solutions were mixed to prepare a test drug solution.
A kidney bean leaf piece having a diameter of about 2 cm was inoculated with 10 Tetranychus urticae female adult insects. Then, the test drug solution was sprayed in an amount of 0.3 ml per two pieces of the kidney bean leaves. Three days after, life-or-death of the female adult insects was observed. From the observed results, the insecticidal ratio was calculated in the same manner as in Test Example 1. The test was repeated three times.

[3] = test system: Spodoptera litura third-instar larvae; test: Test Example 1: cabbage leaf immersion test, insecticidal ratio on Spodoptera litura third-instar larvae (spinetoram / spirotetramat); details: cabbage leaf immersed 60 seconds, four days after
Description: as §1, §4
The spinetoram water-diluted solution and spirotetramat water-diluted solution were mixed to prepare a test drug solution.
as §3, with “The results were corrected by” for “From”, “following formula, thereby calculating” for “observed results, the”, “ratio.” for “ratio was calculated in the same manner as in Test Example 1.”, “times. Insecticidal ratio (%)=100×(Mt−Mc)/(100−Mc)” for “times.”
Mt: insect death ratio (%) in test compound-treated area
Mc: insect death ratio (%) in test compound-non-treated area

## Cc1cc(C)c(C2=C(OC(=O)CC(C)(C)C)C3(CCCC3)OC2=O)c(C)c1 [spiromesifen, 2-oxo-3-(2,4,6-trimethylphenyl)-1-oxaspiro[4,4]nona-3-en-4-yl 3,3-dimethylbutanoate]
[1]; 112 ppm
  Insecticidal ratio (%): 3.4%
[2]; 3.2 ppm
  Insecticidal ratio (%): 28.0%

## CCOC(=O)OC1=C(c2cc(C)ccc2C)C(=O)N[C@]12CC[C@@H](OC)CC2 [spirotetramat, cis-4-(ethoxycarbonyloxy)-8-methoxy-3-(2,5-xylyl)-1-azaspiro[4,5]dec-3-en-2-one]
[3]; 56 ppm
  Insecticidal ratio (%): 10.3%
[3]; 112 ppm
  Insecticidal ratio (%): 20.7%
[2]; 0.8 ppm
  Insecticidal ratio (%): 0%

## spinetoram
[1]; 0.73 ppm
  Insecticidal ratio (%): 6.9%
[3]; 0.73 ppm
  Insecticidal ratio (%): 17.2%
[2]; 12.5 ppm
  Insecticidal ratio (%): 28.4%
